Experimental data published in US10105443B2, “Sustained-release drug carrier composition” (POLYPID LTD., priority 2008, dated 2018).

Experiments:
Format in all cases: physicochemical
[1] = Release of drug from bone filler particles coated with the matrix composition following hydration; settings: for kinetics of co-release from the surface of coated bone particles: surrounding medium 5% PBS at 37° C., FIG. 15; for period of constant release of DOX: bone filler particles (BioOss) coated with matrix PLGA 85:15, cholesterol, DSPC (18:0), with or without alpha-tocopherol
Method: • 50-75 KDa PLGA (poly (lactic-co-glycolic acid, 85:15 ratio)) • Cholesterol-50%-100% w/w vs. PLGA. The mixture is mixed. The entire process is performed at room temperature. A fat-polymer combination matrix is thus obtained. II. Preparation of Second Solution The following materials are mixed with a volatile organic solvent (methanol and ethyl acetate) • a. […] A phosphatidylcholine, —1,2-distearoyl-sn-glycero-3-phosphocholine (DSPC) present as 300-700% w/w vs. PLGA. The mixture is mixed well. The entire process is conducted at room temperature. When phosphatidylcholine having long saturated fatty chains is used (e.g. DSPC) the process is typically performed at higher temperatures of about 40-50° C. No water is required in the mixture. […] Stirring is continued for 1-5 minutes. The entire process is performed at a temperature of 20-50° C. depending of the lipid used. IV—Evaporation Following Surface Coating In order to coat bone filler particles, the particles are added to the mixture of stage III followed by evaporation of the volatile organic solvents. The entire process is performed at a temperature of 40-50° C. The ratio between the volume and the percentage of solids in the mixture of stage III and the mass of the bone particles will determine the release period of the drug post hydration of the coated particles. V—Vacuum Drying Coated bone particles are vacuum-dried for storage. […] The rate of sustained release of Doxycycline hyclate encapsulated within the matrix composition of the present invention was measured and compared to the release rate of the drug from bone particles socked with free DOX solution (having the same amount of DOX).
The release profile of DOX from a mixture of coated and non coated bone (xenografts bovine—commercial—BioOss) particles was measured. The coated particles were mixed with similar plain (not-coated) bone particles in a ratio of 1:4. […] The formulation in this study comprised PLGA 75:25 and DPPC.
The release of DOX from bone particles (12 mg/sample) coated with different mass of the DOX containing matrix formulation was compared. Following hydration (5% serum at 37° C.) the duration of release of 90% of the initial DOX amount in the formulation was monitored (FIG. 10).

[2] = Influence of polymer/lipid composition of the matrix on release rate of the entrapped agent; settings: FIG. 8
Method: The influence of different polymer/lipid compositions on the release rate of a given drug was measured using fluorescein entrapped within a matrix compositing PLGA (75:25), DPPC as the main phospholipid and varying amounts of lauric acid (LA) and phosphatidylethanolamine (PE) having saturated fatty acid moieties of at least 14 carbons. […] The release lasted between about 20 to about 110 days when LA:PE w/w % ratio was varied between 10:10 to 0:0 respectively (vs. the total mass of the formulation). The drug release profile from bone particles coated with matrix formulation comprising PE versus bone particles coated with matrix formulation comprising cholesterol was compared.
The fact that different polymer/lipid compositions influence the release rate can be used to fulfill different clinical needs. […] In contrast, when the antibiotic drug, DOX, was associated with a slow degrading polymer such as PLGA 85:15 and a 18:0 phospholipid such as DSPC, complete release of the drug was accomplished after more than 50 days (FIG. 8).

[3] = Drug release from absorbable gelatin sponge containing the sustained release formulation (HPLC); settings: 5% serum at 37° C.
Method: A solution containing PLGA—75:25, PC 16:0, cholesterol 10% and Doxycycline hyclate (DOX) 10% was injected into the center of the absorbable gelatin sponge foam cube (Gelatamp. ROEKO). The overall content of DOX in the injected formulation was 380 μg in 25 μl. The solvent was evaporated in a 37° C. incubator and subsequently over night under vacuum. As a control, the common use of pre-wetting with a similar dose of DOX (380 μg) solution was injected into the gelatin sponge tube. Following hydration (5% serum at 37° C.) the release of DOX from the gelatin sponge cube into the surrounding was detected and quantified by HPLC.

Molecule: CCCCCCCCCCCCCCCC(=O)OC[C@H](COP(=O)([O-])OCC[N+](C)(C)C)OC(=O)CCCCCNc1ccc([N+](=O)[O-])c2nonc12 [NBD-PC, 1-palmitoyl-2-{6-[(7-nitro-2-1,3-benzoxadiazol-4-yl)amino]hexanoyl}-sn-glycero-3-phosphocholine]
- kinetics of co-release from the surface of coated bone particles [1]: zero order kinetics

Molecule: CC(C(=O)O)c1ccc(-c2ccccc2)c(F)c1 (stereo not shown) [NSAID, Flurbiprofen]
- time to full release of the drug ([2]; PLGA 50:50 and 14:0 phospholipid DMPC): ≤ 10 days

Molecule: Doxycycline hyclate
- share of encapsulated DOX released following zero order kinetics ([1]; DOX encapsulated in the formulation, FIG. 2): ~70%
- period of constant release of DOX [1]: at least 3 weeks
- period of constant release of DOX ([1]; listed as Doxycycline hyclate): about three
- release kinetics ([1]; bone filler particles coated with matrix PLGA 85:15, cholesterol, DSPC, FIG. 2): zero order kinetics
- dependence of duration of release of 90% of DOX on formulation mass ([1]; bone particles 12 mg/sample coated with different mass of formulation, 5% serum at 37° C., FIG. 10): linearly depended on the formulation mass
- drug released in 3 hours after hydration ([1]; bone particles coated with PLGA 75:25 / DPPC formulation, mixed 1:4 with non-coated particles, 5% serum at 37° C.): about 15%
- release profile, matrix comprising PE (DMPE) versus matrix comprising cholesterol ([1]; coated bone particles, 5% serum at 37° C., FIG. 7): behaves similarly
- effect of presence of non-coated particles on release of DOX from the formulation ([1]; coated:non-coated bone particles 1:4, 5% serum at 37° C., PLGA 75:25 and DPPC): not affected
- kinetics of co-release from the surface of coated bone particles [1]: zero order kinetics
- drug released in 3 hours after hydration ([1]; uncoated bone particles soaked with free DOX (control), 5% serum at 37° C.): 88%
- time to complete release of the drug ([2]; PLGA 85:15 and 18:0 phospholipid DSPC): more than 50 days
- DOX released immediately into the medium ([3]; control: gelatin sponge pre-wetted with DOX solution (380 μg)): total amount
- DOX released into the medium immediately after hydration ([3]; gelatin sponge (Gelatamp) with PLGA 75:25, PC 16:0, cholesterol 10%, DOX 10%, 380 μg DOX): about 40%
- period of gradual release of the rest of the drug ([3]; gelatin sponge with PLGA 75:25, PC 16:0, cholesterol 10%, DOX 10%): more than 7 days
